Measured values reported in the CheMixHub viscosity set.

Assay: xn = mol fraction of the nth substance listed

CCOCCO + CS(C)=O
viscosity [mPa·s], 101.33 kPa
Conditions | 298.15 K | 303.15 K | 308.15 K | 313.15 K | 318.15 K
x1 = 0.0436 | 2 | 1.8 | 1.66 | 1.52 | 1.38
x1 = 0.0879 | 2 | 1.8 | 1.66 | 1.53 | 1.38
x1 = 0.1327 | 2 | 1.81 | 1.67 | 1.53 | 1.38
x1 = 0.1781 | 2.01 | 1.81 | 1.67 | 1.53 | 1.38
x1 = 0.2242 | 2.01 | 1.82 | 1.68 | 1.54 | 1.38
x1 = 0.2709 | 2.02 | 1.82 | 1.68 | 1.54 | 1.38
x1 = 0.3183 | 2.02 | 1.82 | 1.68 | 1.54 | 1.38
x1 = 0.3663 | 2.03 | 1.83 | 1.69 | 1.54 | 1.38
x1 = 0.415 | 2.02 | 1.83 | 1.68 | 1.54 | 1.38
x1 = 0.4644 | 2.02 | 1.82 | 1.68 | 1.54 | 1.38
x1 = 0.5145 | 2.02 | 1.82 | 1.68 | 1.54 | 1.37
x1 = 0.5653 | 2.01 | 1.81 | 1.67 | 1.53 | 1.37
x1 = 0.6169 | 2.01 | 1.81 | 1.67 | 1.52 | 1.36
x1 = 0.6692 | 1.99 | 1.79 | 1.65 | 1.51 | 1.35
x1 = 0.7223 | 1.98 | 1.78 | 1.64 | 1.49 | 1.33
x1 = 0.7762 | 1.96 | 1.75 | 1.62 | 1.48 | 1.31
x1 = 0.8309 | 1.94 | 1.73 | 1.59 | 1.45 | 1.29
x1 = 0.8864 | 1.92 | 1.71 | 1.56 | 1.43 | 1.27
x1 = 0.9428 | 1.88 | 1.67 | 1.53 | 1.39 | 1.24

CCOCCO + O
viscosity [mPa·s]
Conditions | 101 kPa | 101.33 kPa
293.15 K, x1 = 0.02202 | 1.422 | –
293.15 K, x1 = 0.04761 | 2.02 | –
293.15 K, x1 = 0.07883 | 2.731 | –
293.15 K, x1 = 0.1177 | 3.402 | –
293.15 K, x1 = 0.1666 | 3.943 | –
293.15 K, x1 = 0.2304 | 4.205 | –
293.15 K, x1 = 0.318 | 4.219 | –
293.15 K, x1 = 0.4441 | 3.838 | –
293.15 K, x1 = 0.5303 | 3.471 | –
293.15 K, x1 = 0.6418 | 3.081 | –
293.15 K, x1 = 0.7202 | 2.836 | –
293.15 K, x1 = 0.8271 | 2.502 | –
293.15 K, x1 = 0.9078 | 2.27 | –
298.15 K, x1 = 0.0104 | – | 1.04
298.15 K, x1 = 0.0217 | – | 1.25
298.15 K, x1 = 0.0341 | – | 1.44
298.15 K, x1 = 0.0476 | – | 1.7
298.15 K, x1 = 0.0625 | – | 1.97
298.15 K, x1 = 0.0789 | – | 2.26
298.15 K, x1 = 0.0972 | – | 2.54
298.15 K, x1 = 0.1176 | – | 2.8
298.15 K, x1 = 0.1406 | – | 3.05
298.15 K, x1 = 0.1666 | – | 3.24
298.15 K, x1 = 0.1964 | – | 3.38
298.15 K, x1 = 0.2307 | – | 3.48
298.15 K, x1 = 0.2707 | – | 3.47
298.15 K, x1 = 0.3181 | – | 3.45
298.15 K, x1 = 0.3749 | – | 3.33
298.15 K, x1 = 0.4443 | – | 3.14
298.15 K, x1 = 0.5311 | – | 2.89
298.15 K, x1 = 0.6428 | – | 2.58
298.15 K, x1 = 0.7916 | – | 2.19
298.15 K, x2 = 0.11 | – | 1.991
298.15 K, x2 = 0.2089 | – | 2.215
298.15 K, x2 = 0.294 | – | 2.441
298.15 K, x2 = 0.4058 | – | 2.765
298.15 K, x2 = 0.5043 | – | 3.031
298.15 K, x2 = 0.5995 | – | 3.311
298.15 K, x2 = 0.7033 | – | 3.504
298.15 K, x2 = 0.8037 | – | 3.376
298.15 K, x2 = 0.902 | – | 2.55
303.15 K, x1 = 0.0104 | – | 0.92
303.15 K, x1 = 0.0217 | – | 1.11
303.15 K, x1 = 0.02202 | 1.097 | –
303.15 K, x1 = 0.0341 | – | 1.27
303.15 K, x1 = 0.0476 | – | 1.5
303.15 K, x1 = 0.04761 | 1.485 | –
303.15 K, x1 = 0.0625 | – | 1.72
303.15 K, x1 = 0.07883 | 1.928 | –
303.15 K, x1 = 0.0789 | – | 1.96
303.15 K, x1 = 0.0972 | – | 2.18
303.15 K, x1 = 0.1176 | – | 2.4
303.15 K, x1 = 0.1177 | 2.355 | –
303.15 K, x1 = 0.1406 | – | 2.61
303.15 K, x1 = 0.1666 | 2.703 | 2.78
303.15 K, x1 = 0.1964 | – | 2.9
303.15 K, x1 = 0.2304 | 2.92 | –
303.15 K, x1 = 0.2307 | – | 3
303.15 K, x1 = 0.2707 | – | 3.03
303.15 K, x1 = 0.318 | 2.951 | –
303.15 K, x1 = 0.3181 | – | 3.02
303.15 K, x1 = 0.3749 | – | 2.93
303.15 K, x1 = 0.4443 | – | 2.77
303.15 K, x1 = 0.5303 | 2.547 | –
303.15 K, x1 = 0.5311 | – | 2.56
303.15 K, x1 = 0.6418 | 2.28 | –
303.15 K, x1 = 0.6428 | – | 2.31
303.15 K, x1 = 0.7202 | 2.126 | –
303.15 K, x1 = 0.7916 | – | 1.97
303.15 K, x1 = 0.8271 | 1.912 | –
303.15 K, x1 = 0.9078 | 1.764 | –
308.15 K, x1 = 0.1406 | – | 2.24
308.15 K, x1 = 0.1666 | – | 2.38
308.15 K, x1 = 0.1964 | – | 2.49
308.15 K, x1 = 0.2307 | – | 2.58
308.15 K, x1 = 0.2707 | – | 2.62
308.15 K, x1 = 0.3181 | – | 2.61
308.15 K, x1 = 0.3749 | – | 2.55
308.15 K, x1 = 0.4443 | – | 2.43
308.15 K, x1 = 0.5311 | – | 2.26
308.15 K, x1 = 0.6428 | – | 2.04
308.15 K, x1 = 0.7916 | – | 1.76
308.15 K, x2 = 0.1041 | – | 1.418
308.15 K, x2 = 0.1944 | – | 1.621
308.15 K, x2 = 0.2933 | – | 1.785
308.15 K, x2 = 0.4988 | – | 2.148
308.15 K, x2 = 0.5964 | – | 2.307
308.15 K, x2 = 0.699 | – | 2.385
308.15 K, x2 = 0.7918 | – | 2.32
308.15 K, x2 = 0.8469 | – | 2.111
308.15 K, x2 = 0.8976 | – | 1.787
308.15 K, x2 = 0.9491 | – | 1.279
313.15 K, x1 = 0.02202 | 0.8665 | –
313.15 K, x1 = 0.04761 | 1.14 | –
313.15 K, x1 = 0.07883 | 1.456 | –
313.15 K, x1 = 0.1177 | 1.727 | –
313.15 K, x1 = 0.1666 | 1.967 | –
313.15 K, x1 = 0.2304 | 2.124 | –
313.15 K, x1 = 0.318 | 2.14 | –
313.15 K, x1 = 0.4441 | 2.011 | –
313.15 K, x1 = 0.5303 | 1.9 | –
313.15 K, x1 = 0.6418 | 1.731 | –
313.15 K, x1 = 0.7202 | 1.614 | –
313.15 K, x1 = 0.8271 | 1.491 | –
313.15 K, x1 = 0.9078 | 1.399 | –
323.15 K, x1 = 0.02202 | 0.6974 | –
323.15 K, x1 = 0.04761 | 0.8748 | –
323.15 K, x1 = 0.07883 | 1.105 | –
323.15 K, x1 = 0.1177 | 1.32 | –
323.15 K, x1 = 0.1666 | 1.479 | –
323.15 K, x1 = 0.2304 | 1.613 | –
323.15 K, x1 = 0.318 | 1.656 | –
323.15 K, x1 = 0.4441 | 1.591 | –
323.15 K, x1 = 0.5303 | 1.514 | –
323.15 K, x1 = 0.6418 | 1.398 | –
323.15 K, x1 = 0.7202 | 1.324 | –
323.15 K, x1 = 0.8271 | 1.212 | –
323.15 K, x1 = 0.9078 | 1.133 | –
